According to PMC9189845, “Structure–Activity Relationships of 8-Hydroxyquinoline-Derived Mannich Bases with Tertiary Amines Targeting Multidrug-Resistant Cancer” (Journal of Medicinal Chemistry, 2022):
Read-outs that look alike come from different tables or passages of the source.

Legend:
MES-SA cells = experiment: PrestoBlue viability assay, MES-SA cells; conditions: for pIC50 value MES-SA: MES-SA cells, without TQ
MES-SA/Dx5 cells = experiment: PrestoBlue viability assay, MES-SA/Dx5 cells (MDR, P-gp positive); conditions: for pIC50 value MES-SA/Dx5: MES-SA/Dx5 cells, without TQ
[1] = read-out: IC50 / μM MES-SA, absence of TQ, 72 h incubation
[2] = read-out: IC50 / μM MES-SA/Dx5, absence of TQ, 72 h incubation
[3] = selectivity ratio MES-SA vs MES-SA/Dx5, with TQ
[4] = selectivity ratio MES-SA vs MES-SA/Dx5, without TQ
[5] = Homo sapiens, MES-SA, 72 h, read-out: IC50 / μM MES-SA, absence of TQ, 72 h incubation
[6] = Homo sapiens, MES-SA, read-out: pIC50 value MES-SA, MES-SA cells, without TQ (converted)
[7] = Homo sapiens, MES-SA/Dx5, 72 h, read-out: IC50 / μM MES-SA/Dx5, absence of TQ, 72 h incubation
[8] = Homo sapiens, MES-SA/Dx5, read-out: pIC50 value MES-SA/Dx5, MES-SA/Dx5 cells, without TQ (converted)

2-((4-Methylpiperazin-1-yl)methyl)phenol [Compound 72]
IC50 (MES-SA cells; [1]): > 100 µM | IC50 (MES-SA/Dx5 cells; [2]): > 100 µM

Oc1c(C(c2ccccc2Br)N2CCCC2)ccc2cccnc12 (racemic) [Compound 88]
pIC50 value MES-SA (MES-SA cells): 4.89 | IC50 (MES-SA cells; [1]): 13 ± 1.35 µM | pIC50 value MES-SA/Dx5 (MES-SA/Dx5 cells): 5.18 | IC50 (MES-SA/Dx5 cells; [2]): 6.6 ± 0.21 µM | SR_TQ (MES-SA/Dx5 cells; [3]): 1.55 | SR (MES-SA/Dx5 cells; [4]): 1.98

Oc1c(C(c2ccc(C(F)(F)F)cc2)N2CCCC2)ccc2cccnc12 (racemic) [Compound 89]
pIC50 value MES-SA (MES-SA cells): 4.98 | IC50 (MES-SA cells; [1]): 11.1 ± 3.57 µM | pIC50 value MES-SA/Dx5 (MES-SA/Dx5 cells): 5.56 | IC50 (MES-SA/Dx5 cells; [2]): 2.83 ± 0.61 µM | SR_TQ (MES-SA/Dx5 cells; [3]): 1.12 | SR (MES-SA/Dx5 cells; [4]): 3.91

CC1CCN(C(c2ccccc2)c2ccc3cccnc3c2O)CC1 (racemic) [Compound 99]
pIC50 value MES-SA (MES-SA cells): 5.06 | IC50 (MES-SA cells; [1]): 8.77 ± 0.24 µM | pIC50 value MES-SA/Dx5 (MES-SA/Dx5 cells): 4.95 | IC50 (MES-SA/Dx5 cells; [2]): 11.5 ± 1.75 µM | SR (MES-SA/Dx5 cells; [4]): 0.76

CC1CCN(C(c2cccs2)c2ccc3cccnc3c2O)CC1 (racemic) [Compound 101]
pIC50 value MES-SA (MES-SA cells): 4.97 | IC50 (MES-SA cells; [1]): 10.8 ± 0.18 µM | pIC50 value MES-SA/Dx5 (MES-SA/Dx5 cells): 4.78 | IC50 (MES-SA/Dx5 cells; [2]): 16.6 ± 0.81 µM | SR (MES-SA/Dx5 cells; [4]): 0.65

OCCN1CCN(C(c2ccc(F)cc2)c2ccc3cccnc3c2O)CC1 (racemic) [Compound 120]
pIC50 value MES-SA (MES-SA cells): 4.18 | IC50 (MES-SA cells; [1]): 66.7 ± 4.56 µM | pIC50 value MES-SA/Dx5 (MES-SA/Dx5 cells): 4.55 | IC50 (MES-SA/Dx5 cells; [2]): 29.1 ± 7.12 µM | SR_TQ (MES-SA/Dx5 cells; [3]): 1.55 | SR (MES-SA/Dx5 cells; [4]): 2.29

Oc1cccc2cccnc12 [Compound 12, 8-hydroxyquinoline]
IC50 (MES-SA cells; Homo sapiens, MES-SA, 72 h, read-out: IC50 / μM MES-SA): 5.04 ± 0.51 µM | IC50 (MES-SA cells; Homo sapiens, MES-SA, read-out: IC50 / μM MES-SA (values in parentheses)): 5.13 ± 0.05 µM | IC50 (MES-SA cells; Homo sapiens, MES-SA, read-out: pIC50 value MES-SA (converted)): 5.01 µM | IC50 (MES-SA cells; Homo sapiens, MES-SA, read-out: pIC50 value MES-SA+TQ (converted)): 5.13 µM | SR (MES-SA/Dx5 cells): 1.66 | SR_TQ (MES-SA/Dx5 cells): 2.34 | IC50 (MES-SA/Dx5 cells; Homo sapiens, MES-SA/Dx5, 72 h, read-out: IC50 / μM MES-SA/Dx5): 3.04 ± 0.35 µM | IC50 (MES-SA/Dx5 cells; Homo sapiens, MES-SA/Dx5, read-out: IC50 / μM MES-SA/Dx5 (values in parentheses)): 2.2 ± 0.18 µM | IC50 (MES-SA/Dx5 cells; Homo sapiens, MES-SA/Dx5, read-out: pIC50 value MES-SA/Dx5 (converted)): 3.02 µM | IC50 (MES-SA/Dx5 cells; Homo sapiens, MES-SA/Dx5, read-out: pIC50 value MES-SA/Dx5 + TQ (converted)): 2.19 µM

CCN(CC)Cc1ccc(O)c2ncccc12 [Compound 45]
IC50 (MES-SA cells; [5]): 4.5 ± 0.04 µM | IC50 (MES-SA cells; [6]): 4.47 µM | IC50 (MES-SA/Dx5 cells; [7]): 5.02 ± 0.26 µM | IC50 (MES-SA/Dx5 cells; [8]): 5.01 µM | SR (MES-SA/Dx5 cells; [4]): 0.9

Oc1ccc(CN2CCCC2)c2cccnc12 [Compound 46]
IC50 (MES-SA cells; [5]): 7.81 ± 0.5 µM | IC50 (MES-SA cells; [6]): 7.76 µM | IC50 (MES-SA/Dx5 cells; [7]): 5.31 ± 0.52 µM | IC50 (MES-SA/Dx5 cells; [8]): 5.25 µM | SR (MES-SA/Dx5 cells; [4]): 1.47

CCOC(=O)C1CCN(Cc2ccc(O)c3ncccc23)CC1 [Compound 48]
IC50 (MES-SA cells; [5]): 4.62 ± 1.03 µM | IC50 (MES-SA cells; [6]): 4.47 µM | IC50 (MES-SA/Dx5 cells; [7]): 3.54 ± 0.72 µM | IC50 (MES-SA/Dx5 cells; [8]): 3.47 µM | SR (MES-SA/Dx5 cells; [4]): 1.31

Oc1ccc(CN2CCc3ccccc3C2)c2cccnc12 [Compound 50]
IC50 (MES-SA cells; [5]): 16.7 ± 1.5 µM | IC50 (MES-SA cells; [6]): 16.6 µM | IC50 (MES-SA/Dx5 cells; [7]): 17 ± 0.49 µM | IC50 (MES-SA/Dx5 cells; [8]): 17 µM | SR (MES-SA/Dx5 cells; [4]): 0.99

Oc1ccc(CN2CCCCCC2)c2cccnc12 [Compound 52]
IC50 (MES-SA cells; [5]): 7.15 ± 0.27 µM | IC50 (MES-SA cells; [6]): 7.08 µM | IC50 (MES-SA/Dx5 cells; [7]): 5.84 ± 0.69 µM | IC50 (MES-SA/Dx5 cells; [8]): 5.75 µM | SR (MES-SA/Dx5 cells; [4]): 1.23

Oc1ccc(CN2CCOCC2)c2cccnc12 [Compound 54]
IC50 (MES-SA cells; [5]): 6.99 ± 0.31 µM | IC50 (MES-SA cells; [6]): 6.92 µM | IC50 (MES-SA/Dx5 cells; [7]): 9.58 ± 0.33 µM | IC50 (MES-SA/Dx5 cells; [8]): 9.55 µM | SR (MES-SA/Dx5 cells; [4]): 0.73

Oc1ccccc1CN1CCCCC1 [Compound 59]
IC50 (MES-SA cells; [5]): > 100 µM | IC50 (MES-SA/Dx5 cells; [7]): > 100 µM

COc1ccc(O)c(CN2CCCCC2)c1 [Compound 60]
IC50 (MES-SA cells; [5]): > 100 µM | IC50 (MES-SA/Dx5 cells; [7]): > 100 µM

O=Cc1ccc(O)c(CN2CCCCC2)c1 [Compound 61]
IC50 (MES-SA cells; [5]): > 100 µM | IC50 (MES-SA/Dx5 cells; [7]): > 100 µM

CC(=O)c1ccc(O)c(CN2CCCCC2)c1 [Compound 62]
IC50 (MES-SA cells; [5]): > 100 µM | IC50 (MES-SA/Dx5 cells; [7]): > 100 µM

COc1ccc(C(C)=O)cc1CN1CCCCC1 [Compound 63]
IC50 (MES-SA cells; [5]): > 100 µM | IC50 (MES-SA/Dx5 cells; [7]): > 100 µM

Oc1ccc2ccncc2c1CN1CCCC(C(F)(F)F)C1 (centres unmarked) [Compound 64]
IC50 (MES-SA cells; [5]): > 100 µM | IC50 (MES-SA/Dx5 cells; [7]): > 100 µM

Oc1ccccc1CN1CCOCC1 [Compound 65]
IC50 (MES-SA cells; [5]): > 100 µM | IC50 (MES-SA/Dx5 cells; [7]): > 100 µM

Oc1ccccc1C(=S)N1CCOCC1 [Compound 66]
IC50 (MES-SA cells; [5]): > 100 µM | IC50 (MES-SA/Dx5 cells; [7]): > 100 µM
